Measurements as given in patent US6930115B2, “Antitumor effect potentiators” (Mitsubishi Pharma Corporation, priority 2000, dated 2005).

Assays:
[1] = tested on: Mouse melanoma B16-F10 cells; assay: Measurement of cell growth activity (MTT), in vitro growth of B16-F10 cells; type: cell-based; details: 72 hr culture, MTT
Experimental: Mouse melanoma B16-F10 cells (the aforementioned) were cultured in MEM supplemented with 2 mM L-glutamine, 1 mM MEM non-essential amino acids, 1% MEM vitamins, 1 mM pyruvic acid and 5% FCS, and the cells were scraped off from the culture flask every 3-4 days with a cell scraper (No. 3010, manufactured by Coaster), diluted 10-fold and maintained by subculture. In the experiment examining the effect of the test substance on the cell growth, the B16-F10 cells maintained in vitro by subculture were recovered with a cell scraper, suspended in MEM supplemented with 10% FCS at 2×10^5 cells/mL and added to a 96 well microtest plate (Becton Dickinson) at 1×10^4 cells/50 μL/well. Furthermore, 50 μL of a test substance at a 2-fold concentration of the final concentration was added to the well, and cultured in a CO2 incubator (MCO-175, SANYO Electric Co., Ltd.) at 37° C., 5% CO2 95% air for 72 hr.
After culture, 10 mg/mL of MTT [(3-[4,5-Dimethylthiazol-2-yl]-2,5-diphenyl-tetrazolium bromide)] was added at 10 μL/well, which was followed by culture for 3 hr. Thereafter, 100 μL of 10% SDS (sodium dodecylsulfate)—0.01N HCl was added to dissolve the pigment and absorbance at 570 nm was measured with a multilabel counter (1420 ARVO SX, Pharmacia Biotech Corporation). According to the concentration of the test substance, each well was expressed by absorbance, and average value and standard error. Using the well, to which the medium alone was added, as a control, the growth inhibition rate was calculated according to the following formula. [formula] Analysis method: Based on the dose reaction curves of the inventive compound alone treatment group and cisplatin alone treatment group, the combination index (CI) of the action in concomitant use is calculated by median effect analysis (References and [2]). (Results)

[2] = tested on: mouse B16-F10 melanoma cultured cells; assay: Hematogenous pulmonary metastasis after transplantation of mouse B16-F10 melanoma cultured cells into tail vein; type: in vivo; details: alone
Experimental: • (1) Preparation of mouse B16-F10 melanoma cultured cells (hereinafter simply B16-F10) B16-F10 cells (a permission to use was obtained from US M.D. Anderson Cancer Center, Dr. I. Fidler and provided for use from Japanese Foundation for cancer research·cancer chemotherapy center, Dr. […] For experiment, B16-F10 cells were suspended in MEM at 5×10^5 cells/mL and 0.2 mL thereof was transferred into the tail vein of 8-week-old male C57BL/6 mice (8 per group). […] Alzet, model 1002, flow rate […], for use for 14 days), and the osmotic pump was intraperitoneally transplanted into the mice one day before the transplantation of B16-F10 cells. • (3) As regards cisplatin, a preparation for injection (product name: Randa injection) was diluted with physiological saline and intraperitoneally administered once the day after transplantation of B16-F10 cells. As regards etoposide, a preparation for injection (product name: […] injection) was diluted with physiological saline and repeatedly administered intraperitoneally once a day for 5 days starting from one day after transplantation of B16-F10 cells. Paclitaxel was purchased from Sigma chemicals Co., suspended in 0.5% metolose solution and repeatedly administered intraperitoneally once every other day (3 times/week for 2 weeks) starting from one day after transplantation of B16-F10 cells. […] In addition, the values of combination index (CI) of the action in concomitant use analyzed by Median Effect Analysis (References and [2]) with regard to the combination group of the compound of the present invention and the anticancer agent are summarized in Table 3 and Table 6.

N.N.[Cl][Pt][Cl] [cisplatin, reference compound]
average growth suppression rate ± standard error ([1]; cisplatin 10 μM alone): 5.813 ± 1.510% | average growth suppression rate ± standard error ([1]; cisplatin 30 μM alone): 29.609 ± 4.503% | average growth suppression rate ± standard error ([1]; cisplatin 100 μM alone): 96.631 ± 0.109% | T/C±standard error (average number of pulmonary metastatic colonies of administration group/control group ×100) ([2]; Table 1, cisplatin 0.5 mg/kg intraperitoneally once, 14 days after cell transfer): 80.2 ± 13.2% | T/C±standard error (average number of pulmonary metastatic colonies of administration group/control group ×100) ([2]; Table 1, cisplatin 1 mg/kg intraperitoneally once, 14 days after cell transfer): 66.5 ± 8.3% | T/C±standard error (average number of pulmonary metastatic colonies of administration group/control group ×100) ([2]; Table 1, cisplatin 2.5 mg/kg intraperitoneally once, 14 days after cell transfer): 57.5 ± 3.0% | T/C±standard error (average number of pulmonary metastatic colonies of administration group/control group ×100) ([2]; Table 1, cisplatin 5 mg/kg intraperitoneally once, 14 days after cell transfer): 53.3 ± 4.5% | T/C±standard error (average number of pulmonary metastatic colonies of administration group/control group ×100) ([2]; Table 1, cisplatin 10 mg/kg intraperitoneally once, 14 days after cell transfer): 46.7 ± 4.1% | T/C±standard error (average number of pulmonary metastatic colonies of administration group/control group ×100) ([2]; Table 2, cisplatin 0.5 mg/kg intraperitoneally once, 14 days after cell transfer): 81.7 ± 13.4% | T/C±standard error (average number of pulmonary metastatic colonies of administration group/control group ×100) ([2]; Table 2, cisplatin 1 mg/kg intraperitoneally once, 14 days after cell transfer): 67.7 ± 8.4% | T/C±standard error (average number of pulmonary metastatic colonies of administration group/control group ×100) ([2]; Table 2, cisplatin 2.5 mg/kg intraperitoneally once, 14 days after cell transfer): 58.6 ± 3.0% | T/C±standard error (average number of pulmonary metastatic colonies of administration group/control group ×100) ([2]; Table 2, cisplatin 5 mg/kg intraperitoneally once, 14 days after cell transfer): 54.3 ± 4.6% | T/C±standard error (average number of pulmonary metastatic colonies of administration group/control group ×100) ([2]; Table 2, cisplatin 10 mg/kg intraperitoneally once, 14 days after cell transfer): 30.8 ± 4.7%

COc1cc([C@@H]2c3cc4c(cc3[C@@H](O[C@@H]3O[C@@H]5CO[C@@H](C)O[C@H]5[C@H](O)[C@H]3O)[C@H]3COC(=O)[C@H]23)OCO4)cc(OC)c1O [etoposide, reference compound]
T/C±standard error (average number of pulmonary metastatic colonies of administration group/control group ×100) ([2]; Table 4, etoposide 1 mg/kg intraperitoneally once a day for 5 days): 56.0 ± 3.0% | T/C±standard error (average number of pulmonary metastatic colonies of administration group/control group ×100) ([2]; Table 4, etoposide 2.5 mg/kg intraperitoneally once a day for 5 days): 34.0 ± 7.4% | T/C±standard error (average number of pulmonary metastatic colonies of administration group/control group ×100) ([2]; Table 4, etoposide 5 mg/kg intraperitoneally once a day for 5 days): 33.4 ± 4.0% | T/C±standard error (average number of pulmonary metastatic colonies of administration group/control group ×100) ([2]; Table 4, etoposide 10 mg/kg intraperitoneally once a day for 5 days): 22.5 ± 4.2% | T/C±standard error (average number of pulmonary metastatic colonies of administration group/control group ×100) ([2]; Table 4, etoposide 25 mg/kg intraperitoneally once a day for 5 days): 14.5 ± 2.6%

CC(=O)O[C@H]1C(=O)[C@@]2(C)[C@H]([C@H](OC(=O)c3ccccc3)[C@]3(O)C[C@H](OC(=O)[C@H](O)[C@@H](NC(=O)c4ccccc4)c4ccccc4)C(C)=C1C3(C)C)[C@]1(OC(C)=O)CO[C@@H]1C[C@@H]2O [paclitaxel, reference compound]
T/C±standard error (average number of pulmonary metastatic colonies of administration group/control group ×100) ([2]; Table 5, paclitaxel 1 mg/kg intraperitoneally once every other day (3 times/week for 2 weeks)): 75.9 ± 5.9% | T/C±standard error (average number of pulmonary metastatic colonies of administration group/control group ×100) ([2]; Table 5, paclitaxel 2.5 mg/kg intraperitoneally once every other day (3 times/week for 2 weeks)): 48.8 ± 8.4% | T/C±standard error (average number of pulmonary metastatic colonies of administration group/control group ×100) ([2]; Table 5, paclitaxel 5 mg/kg intraperitoneally once every other day (3 times/week for 2 weeks)): 37.3 ± 4.0% | T/C±standard error (average number of pulmonary metastatic colonies of administration group/control group ×100) ([2]; Table 5, paclitaxel 10 mg/kg intraperitoneally once every other day (3 times/week for 2 weeks)): 30.3 ± 3.6% | T/C±standard error (average number of pulmonary metastatic colonies of administration group/control group ×100) ([2]; Table 5, paclitaxel 25 mg/kg intraperitoneally once every other day (3 times/week for 2 weeks)): 31.5 ± 7.2%
